In patent US12522587B2, “Cancer treatments targeting cancer stem cells” (Remedy Plan, Inc., priority 2018, dated 2026):

Legend:
Ramos (RA 1) = assay: Growth inhibition of additional cancer cell lines; assay type: cell-based; settings: Homo sapiens, Hematopoietic-Burkitt's B-cell lymphoma, 50% inhibition of growth
From the text: (§1) We tested the ability of compound I-1 to inhibit the growth of 11 additional cell lines, derived from a variety of different types of human cancer.

MM.1R = assay: Growth inhibition of additional cancer cell lines; assay type: cell-based; settings: Homo sapiens, Hematopoietic-B-cell myeloma, 50% inhibition of growth
From the text: as §1

NCI-H520 = assay: Growth inhibition of additional cancer cell lines; assay type: cell-based; settings: Homo sapiens; NCI-H520, NSCLC; 50% inhibition of growth
From the text: as §1

RL95-2 = assay: Growth inhibition of additional cancer cell lines; assay type: cell-based; settings: Homo sapiens; RL95-2, Uterus/endometrium; 50% inhibition of growth
From the text: as §1

HepG2 = assay: Growth inhibition of additional cancer cell lines; assay type: cell-based; settings: Homo sapiens; HepG2, Liver; 50% inhibition of growth
From the text: as §1

NALM-6 = assay: Growth inhibition of additional cancer cell lines; assay type: cell-based; settings: Homo sapiens; NALM-6, Heme (B-cell precursor leukemia, ALL); 50% inhibition of growth
From the text: as §1

Thp1 = assay: Growth inhibition of additional cancer cell lines; assay type: cell-based; settings: Homo sapiens, THP-1; Thp1, Heme (acute monocytic leukemia); 50% inhibition of growth
From the text: as §1

SU-DHL-10 = assay: Growth inhibition of additional cancer cell lines; assay type: cell-based; settings: Homo sapiens, SU-DHL10; SU-DHL-10, Hematopoietic-large B-cell lymphoma; 50% inhibition of growth
From the text: as §1

SR = assay: Growth inhibition of additional cancer cell lines; assay type: cell-based; settings: Homo sapiens, Heme (large cell immunoblastic lymphoma-unknown B or T cell origin), 50% inhibition of growth
From the text: as §1

SW620 = assay: Growth inhibition of additional cancer cell lines; assay type: cell-based; settings: Homo sapiens, SW-620; SW620, Colon; 50% inhibition of growth
From the text: as §1

Raji = assay: Growth inhibition of additional cancer cell lines; assay type: cell-based; settings: Homo sapiens, Heme (Burkitt's lymphoma), 50% inhibition of growth
From the text: as §1

[1] = Pharmacokinetic profile after oral gavage in mice; assay type: in vivo; settings: male, CD1, mouse, single PO 100 mg/kg, plasma over 24 hours
Experimental: The pharmacokinetic profile of compound I-1 was determined after oral gavage of 100 mg/kg in male CD1 mice (n=3), using freshly prepared formulations. Approximately 0.025 mL of blood were collected from the dorsal metatarsal vein at 15 min, 30 min, and 1, 2, 4, 6, 8, and 24 hr post dosing. Plasma concentrations of the drug were analyzed by LC/MS/MS method.
Following a single PO (oral) injection in mice at 100 mg/kg, the concentration of compound I-1 was measured in the plasma over 24 hours. The half life was approximately 6 hours.

AGS cells = assay: Kinetic cell viability with AGS cells (RealTime Glo MT); assay type: cell-based, human
Experimental: Approximately 50,000 AGS cells were seeded per well of a 96-well plate in media containing NanoLuc Luciferase and MT Cell Viability Substrate provided on the RealTime Glo MT Cell Viability Assay Kit from PROMEGA. Four hours after plating, cells were treated with DMSO alone (no drug treatment) or decreasing concentrations of a compound of the disclosure to achieve final concentrations of 20, 10, 5, and 2.5 μM. Luminescence Units (RLU) were measured every 16-20 hours using a SynergyHTX plate reader with a 30 msec integration (see FIG. 1).
Approximately 50,000 AGS cells were seeded per well of a 96-well plate in media containing NanoLuc Luciferase and MT Cell Viability Substrate provided on the RealTime Glo MT Cell Viability Assay Kit from PROMEGA. Four hours after plating, cells were treated with DMSO alone (no drug treatment) or decreasing concentrations of compound I-1 to achieve final concentrations of 20, 10, 5, and 2.5 μM. Luminescence Units (RLU) were measured every 16-20 hrs using a SynergyHTX plate reader with a 30 msec integration.
AGS gastric cancer cells were treated with either DMSO alone (no drug treatment) or various concentrations of compound I-1 (including 2.5 µM, 5 µM, 10 µM, and 20 µM) for 4 days. Cell health and replication were measured using REALTIME-GLO MT Cell Viability Assay, which provided a luminescence readout as a measurement of cell number and health.

[2] = test system: Primary CD-1 mouse hepatocytes; assay: Hepatocyte toxicity assay (CellTiter Glo); assay type: cell-based; settings: 10 μM daily for 4 days, FIG. 4
Experimental: Fresh Primary CD-1 mouse hepatocytes were obtained from XenoTech in 96-well plates the day after perfusion. After 24 hrs of recovery at 37° C. using OptiCulture Hepatocyte Media, medium was replaced containing either DMSO alone (no drug treatment) or 10 μM of compound I-1 daily for 4 days. Cell viability was measured using CellTiter Glo 2.0 Kit from PROMEGA, following manufacturer instructions. Luminescence was measured using a SynergyHTX plate reader with a 1 sec integration.
Normal, healthy mouse hepatocytes were treated with DMSO alone (no drug treatment) or 10 µM of compound I-1 for 4 days. Cell health was measured using CELLTITER GLO reagent, which provided a luminescence readout as a measurement of total ATP concentration.

nanog = assay: RT-qPCR of nanog RNA in AGS cells; assay type: cell-based, human; settings: 10 μM, 4 days, FIG. 3
Experimental: (§2) Approximately 2.5×10^5 AGS cells were treated for 4 days with DMSO alone (no drug treatment) or 10 μM compound I-1 in DMSO. Cells were lysed and RNA was extracted using Zymo's Quick RNA-Microprep following manufacturer instructions. 100 ng of RNA were reverse transcribed using MuLV reverse transcriptase (New England Biolabs, USA). qPCR was performed using 2 ul of cDNA and Luna Universal qPCR Master Mix from NEB in a Stratagene Mx3005P.
AGS gastric cancer cells were treated with either DMSO alone (no drug treatment) or 10 µM of compound I-1 for 4 days. RNA was isolated and nanog RNA levels were measured by RT-qPCR.

oct4 = assay: RT-qPCR of oct4 RNA in AGS cells; assay type: cell-based, human; settings: 10 μM, 4 days, FIG. 2
Experimental: as §2
AGS gastric cancer cells were treated with either DMSO alone (no drug treatment) or compound I-1 at […] for 4 days. RNA was isolated and oct4 RNA levels were measured by RT-qPCR.

Q: Which IC50 (Ramos (RA 1)) does the source give for `CCC(=O)N1CCc2cc(-c3ccc(C(=O)NCc4cccnc4)cc3)ccc21` [Compound I-1] here?
A: 3.41 µM

Q: And the IC50 (MM.1R)?
A: 5.44 µM

Q: What about the IC50 (NCI-H520) of the same molecule?
A: 3.66 µM

Q: And the IC50 (RL95-2)?
A: 2.5 µM

Q: What about the IC50 (HepG2) of the same molecule?
A: 4.02 µM

Q: What about the IC50 (NALM-6) of the same molecule?
A: 0.675 µM

Q: And the IC50 (Thp1)?
A: 5.17 µM

Q: What about the IC50 (SU-DHL-10) of the same molecule?
A: 2.61 µM

Q: What about the IC50 (SR) of the same molecule?
A: 0.489 µM

Q: And the IC50 (SW620)?
A: 2.79 µM

Q: What about the IC50 (Raji) of the same molecule?
A: 2.52 µM

Q: And the half-life [1]?
A: ~6 h

Q: What about the “growth of gastric cancer cells” value (AGS cells; AGS cells, 2.5-20 μM, 4 days, FIG. 5) of the same molecule?
A: inhibited growth

Q: What about the “populations of embryonic-like gastric cell populations in gastric cancer” value (AGS cells; AGS cells, 20, 10, 5 and 2.5 μM, FIG. 1) of the same molecule?
A: depleted

Q: What about the “toxicity to healthy hepatocytes” value [2] of the same molecule?
A: no toxicity

Q: And the “nanog expression in gastric cancer cells” value (nanog)?
A: decreased

Q: What about the “oct4 expression in gastric cancer cells” value (oct4) of the same molecule?
A: decreased
